Source: patent US4243408A, “Herbicidal N-triazolylmethyl-substituted alpha-haloacetanilide” (Chevron Research Company, priority 1978, dated 1981)

How the values were obtained:
Type in all cases: in vivo
[1] = system: Crabgrass (Digitaria sanguinalis); assay: Pre-Emergent Test, herbicidal effectiveness; details: pre-emergence, 504 h, 33 micrograms per cm^2, 3 weeks, 0-to-100 scale, read-out: Herbicidal Effectiveness, % Control Pre, C
Procedure: (§1) An acetone solution of the test compound was prepared by mixing 750 mg of the compound, 220 mg of a nonionic surfactant and 25 ml of acetone. This solution was added to approximately 125 ml of water containing 156 mg of surfactant.
(§2) Seeds of the test vegetation were planted in a pot of soil and the test solution was sprayed uniformly onto the soil surface at a dose of 33 micrograms/cm^2. The pot was watered and placed in a greenhouse. […] At the end of this period, the herbicidal effectiveness of the compound was rated based on the physiological observations. A 0-to-100 scale was used, 0 representing no phytotoxicity, 100 representing complete kill.

[2] = system: Lambsquarter (Chenopodium album); assay: Pre-Emergent Test, herbicidal effectiveness; details: pre-emergence, 504 h, 33 micrograms per cm^2, 3 weeks, 0-to-100 scale, read-out: Herbicidal Effectiveness, % Control Pre, L
Procedure: as §1, §2

[3] = system: Mustard (Brassica arvensis); assay: Pre-Emergent Test, herbicidal effectiveness; details: pre-emergence, 504 h, 33 micrograms per cm^2, 3 weeks, 0-to-100 scale
Procedure: as §1, §2

[4] = system: Pigweed (Amaranthus retroflexus); assay: Pre-Emergent Test, herbicidal effectiveness; details: pre-emergence, 504 h, 33 micrograms per cm^2, 3 weeks, 0-to-100 scale, read-out: Herbicidal Effectiveness, % Control Pre, P
Procedure: as §1, §2

Watergrass (Echinochloa) [5] = assay: Pre-Emergent Test, herbicidal effectiveness; details: pre-emergence, 504 h, 33 micrograms per cm^2, 3 weeks, 0-to-100 scale, read-out: Herbicidal Effectiveness, % Control Pre, W
Procedure: as §1, §2

Wild Oats (Avena fatua) [6] = assay: Pre-Emergent Test, herbicidal effectiveness; details: pre-emergence, 504 h, 33 micrograms per cm^2, 3 weeks, 0-to-100 scale, read-out: Herbicidal Effectiveness, % Control Pre, O
Procedure: as §1, §2

[7] = system: Crabgrass (Digitaria sanguinalis); assay: Post-Emergent Test, herbicidal effectiveness; details: post-emergence, 504 h, 33 micrograms per cm^2, 3 weeks, 0-to-100 scale, read-out: Herbicidal Effectiveness, % Control Post, C
[8] = system: Lambsquarter (Chenopodium album); assay: Post-Emergent Test, herbicidal effectiveness; details: post-emergence, 504 h, 33 micrograms per cm^2, 3 weeks, 0-to-100 scale, read-out: Herbicidal Effectiveness, % Control Post, L
[9] = system: Mustard (Brassica arvensis); assay: Post-Emergent Test, herbicidal effectiveness; details: post-emergence, 504 h, 33 micrograms per cm^2, 3 weeks, 0-to-100 scale
[10] = system: Pigweed (Amaranthus retroflexus); assay: Post-Emergent Test, herbicidal effectiveness; details: post-emergence, 504 h, 33 micrograms per cm^2, 3 weeks, 0-to-100 scale, read-out: Herbicidal Effectiveness, % Control Post, P
Watergrass (Echinochloa) [11] = assay: Post-Emergent Test, herbicidal effectiveness; details: post-emergence, 504 h, 33 micrograms per cm^2, 3 weeks, 0-to-100 scale, read-out: Herbicidal Effectiveness, % Control Post, W
Wild Oats (Avena fatua) [12] = assay: Post-Emergent Test, herbicidal effectiveness; details: post-emergence, 504 h, 33 micrograms per cm^2, 3 weeks, 0-to-100 scale, read-out: Herbicidal Effectiveness, % Control Post, O

| Compound | pest or weed control at 33 µg/cm2 [1] [%] | pest or weed control at 33 µg/cm2 [2] [%] | pest or weed control at 33 µg/cm2 [3] [%] | pest or weed control at 33 µg/cm2 [4] [%] | pest or weed control at 33 µg/cm2 (Watergrass (Echinochloa) [5]) [%] | pest or weed control at 33 µg/cm2 (Wild Oats (Avena fatua) [6]) [%] | pest or weed control at 5000 µg/mL, 33 µg/cm2 [7] [%] | pest or weed control at 5000 µg/mL, 33 µg/cm2 [8] [%] | pest or weed control at 5000 µg/mL, 33 µg/cm2 [9] [%] | pest or weed control at 5000 µg/mL, 33 µg/cm2 [10] [%] | pest or weed control at 5000 µg/mL, 33 µg/cm2 (Watergrass (Echinochloa) [11]) [%] | pest or weed control at 5000 µg/mL, 33 µg/cm2 (Wild Oats (Avena fatua) [12]) [%] |
| --- | --- | --- | --- | --- | --- | --- | --- | --- | --- | --- | --- | --- |
| CCc1cccc(C)c1NCc1nnc(SC)n1C [Compound 21A] | 0 | 0 | 0 | 0 | 0 | 0 | 0 | 0 | 0 | 0 | 0 | 0 |
| CCc1cccc(C)c1N(Cc1nnc(SC)n1C)C(=O)CCl [Compound 21B] | 0 | 0 | 0 | 0 | 98 | 0 | 0 | 0 | 0 | 0 | 0 | 0 |
| Cc1nnc(CNc2c(C)cccc2Cl)[nH]1 [Compound 22A] | 0 | 0 | 0 | 0 | 0 | 0 | 0 | 0 | 0 | 0 | 0 | 0 |
| Cc1nnc(CN(C(=O)CCl)c2c(C)cccc2Cl)[nH]1 [Compound 22B] | 100 | 85 | 80 | 93 | 100 | 95 | 0 | 20 | 25 | 75 | 60 | 0 |
| CCc1cccc(CC)c1NCc1nnc(SC)n1C [Compound 23A] | 0 | 0 | 0 | 0 | 0 | 0 | 0 | 0 | 0 | 0 | 0 | 0 |
| CCc1cccc(CC)c1N(Cc1nnc(SC)n1C)C(=O)CCl [Compound 23B] | 0 | 0 | 0 | 0 | 0 | 0 | 0 | 0 | 0 | 0 | 0 | 0 |
| CSc1nnc(CNc2c(C)cccc2C)o1 [Compound 24A, 2-(2,6-dimethylphenylaminomethyl)-5-methylthio-1,3,4-oxadiazole] | 0 | 0 | 0 | 0 | 0 | 0 | 0 | 0 | 0 | 0 | 0 | 0 |
